Source: PubChem BioAssay AID330 (DTP/NCI, 2004)
Several values for one entry are separate records, joined by “and”; a condition that tells them apart may be missing. Identical values can stand only once. Inconclusive results and toxic doses are left out. Rule for the calls: active = survival T/C of 150% or more; inactive = T/C below 125% in these data.

System: P388 leukemia ip, CD2F1 mice, survival T/C
Test: NCI In Vivo Anticancer Drug Screen. Data for tumor model P388 Leukemia (intraperitoneal) in CD2F1 (CDF1) mice
Conditions: endpoint: median survival time, higher = longer survival
Summary of the method: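 Mice carrying the transplanted tumor received test compound or vehicle. Survival was recorded in each group, and the value is the treated-group measurement divided by that of the vehicle-treated control group.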

[1] = dose: 60.0 mg/kg/injection, schedule: Q01DX005 (ip), vehicle: saline with Tween-80
[2] = dose: 120.0 mg/kg/injection, schedule: Q01DX005 (ip), vehicle: saline with Tween-80
[3] = dose: 25.0 mg/kg/injection, schedule: Q01DX009 (ip), vehicle: saline with Tween-80
[4] = dose: 60.0 mg/kg/injection, schedule: Q01DX005 (ip), vehicle: saline
[5] = dose: 100.0 mg/kg/injection, schedule: Q01DX001 (ip), vehicle: saline with Tween-80
[6] = dose: 12.5 mg/kg/injection, schedule: Q01DX005 (ip), vehicle: saline
[7] = dose: 50.0 mg/kg/injection, schedule: Q01DX005 (ip), vehicle: saline with Tween-80
[8] = dose: 100.0 mg/kg/injection, schedule: Q01DX005 (ip), vehicle: saline with Tween-80
[9] = dose: 200.0 mg/kg/injection, schedule: Q01DX005 (ip), vehicle: saline with Tween-80
[10] = dose: 240.0 mg/kg/injection, schedule: Q01DX005 (ip), vehicle: saline with Tween-80

Measured: T/C

ClCSc1ccccc1C1=NCCCN1
inactive: dose: 0.78 mg/kg/injection, schedule: Q01DX005 (ip), vehicle: saline 107 % of control | dose: 1.56 mg/kg/injection, schedule: Q01DX005 (ip), vehicle: saline 107 % of control | dose: 3.12 mg/kg/injection, schedule: Q01DX005 (ip), vehicle: saline 102 % of control

CCOC(=O)/C(C#N)=C/Nc1ccc(Cl)nc1Cl
inactive: [1] 89 % of control | [2] 86 % of control

CC(=O)Nc1c(Cl)c(Cl)c2c(c1Cl)C(=O)c1cc(Cl)ccc1-2
inactive: [3] 90 % of control | dose: 50.0 mg/kg/injection, schedule: Q01DX009 (ip), vehicle: saline with Tween-80 90 % of control | dose: 100.0 mg/kg/injection, schedule: Q01DX009 (ip), vehicle: saline with Tween-80 90 % of control

C(=N/NC1=NCCN1)/c1ccnc2ccccc12
inactive: dose: 15.0 mg/kg/injection, schedule: Q01DX005 (ip), vehicle: saline 100 % of control | dose: 30.0 mg/kg/injection, schedule: Q01DX005 (ip), vehicle: saline 98 % of control | [4] 101 % of control and 92 % of control

O=C(COc1cccc(Cl)c1)NCc1ccc([N+](=O)[O-])cc1
inactive: [5] 100 % of control | dose: 200.0 mg/kg/injection, schedule: Q01DX001 (ip), vehicle: saline with Tween-80 90 % of control | dose: 400.0 mg/kg/injection, schedule: Q01DX001 (ip), vehicle: saline with Tween-80 100 % of control

CC(=O)Oc1cccc2c1C(=O)c1c(OC(C)=O)cccc1C2=O
inactive: dose: 1.56 mg/kg/injection, schedule: Q04DX003 (ip), vehicle: Klucel (hydroxypropylcellulose) (HPC) 99 % of control and 89 % of control | dose: 3.12 mg/kg/injection, schedule: Q04DX003 (ip), vehicle: Klucel (hydroxypropylcellulose) (HPC) 97 % of control | dose: 3.13 mg/kg/injection, schedule: Q04DX003 (ip), vehicle: Klucel (hydroxypropylcellulose) (HPC) 107 % of control | dose: 6.25 mg/kg/injection, schedule: Q04DX003 (ip), vehicle: Klucel (hydroxypropylcellulose) (HPC) 99 % of control and 97 % of control | dose: 12.5 mg/kg/injection, schedule: Q04DX003 (ip), vehicle: Klucel (hydroxypropylcellulose) (HPC) 99 % of control and 92 % of control | dose: 50.0 mg/kg/injection, schedule: Q01DX009 (ip), vehicle: Klucel (hydroxypropylcellulose) (HPC) 87 % of control | dose: 200.0 mg/kg/injection, schedule: Q01DX009 (ip), vehicle: Klucel (hydroxypropylcellulose) (HPC) 87 % of control | dose: 400.0 mg/kg/injection, schedule: Q01DX009 (ip), vehicle: Klucel (hydroxypropylcellulose) (HPC) 96 % of control

COc1cc2c(cc1C1CCCCCc3c1[nH]c1ccccc31)C1CCCCC1N2C (centres undefined)
inactive: dose: 12.5 mg/kg/injection, schedule: Q01DX001 (ip), vehicle: distilled water + Tween-80 100 % of control | dose: 25.0 mg/kg/injection, schedule: Q01DX001 (ip), vehicle: distilled water + Tween-80 100 % of control | dose: 50.0 mg/kg/injection, schedule: Q01DX001 (ip), vehicle: distilled water + Tween-80 100 % of control | dose: 100.0 mg/kg/injection, schedule: Q01DX001 (ip), vehicle: distilled water + Tween-80 95 % of control | dose: 200.0 mg/kg/injection, schedule: Q01DX001 (ip), vehicle: distilled water + Tween-80 91 % of control

CCCN(CCNc1cc(OC)cc2cccnc12)C(C)C
inactive: [6] 107 % of control | dose: 25.0 mg/kg/injection, schedule: Q01DX005 (ip), vehicle: saline 107 % of control | dose: 50.0 mg/kg/injection, schedule: Q01DX005 (ip), vehicle: saline 106 % of control and 88 % of control

COCCCOC(=O)Oc1ccc(CC(N)C(=O)O)cc1 (centres undefined)
inactive: dose: 50.0 mg/kg/injection, schedule: Q01DX005 (ip), vehicle: Klucel (hydroxypropylcellulose) (HPC) 99 % of control | dose: 100.0 mg/kg/injection, schedule: Q01DX005 (ip), vehicle: Klucel (hydroxypropylcellulose) (HPC) 99 % of control | dose: 200.0 mg/kg/injection, schedule: Q01DX005 (ip), vehicle: Klucel (hydroxypropylcellulose) (HPC) 96 % of control

BrCc1ccc2ccc3ccc(CBr)nc3c2n1
inactive: dose: 7.5 mg/kg/injection, schedule: Q01DX005 (ip), vehicle: saline with Tween-80 103 % of control | dose: 15.0 mg/kg/injection, schedule: Q01DX005 (ip), vehicle: saline with Tween-80 115 % of control | dose: 30.0 mg/kg/injection, schedule: Q01DX005 (ip), vehicle: saline with Tween-80 106 % of control

CCOC(=O)c1ccc(NN=NC(C)(C)C)cc1
inactive: dose: 12.5 mg/kg/injection, schedule: Q01DX009 (ip), vehicle: distilled water + Tween-80 91 % of control | dose: 25.0 mg/kg/injection, schedule: Q01DX009 (ip), vehicle: distilled water + Tween-80 93 % of control | dose: 50.0 mg/kg/injection, schedule: Q01DX009 (ip), vehicle: distilled water + Tween-80 86 % of control | dose: 100.0 mg/kg/injection, schedule: Q01DX009 (ip), vehicle: distilled water + Tween-80 93 % of control | dose: 200.0 mg/kg/injection, schedule: Q01DX009 (ip), vehicle: distilled water + Tween-80 86 % of control

C#CC(=O)OC
inactive: dose: 25.0 mg/kg/injection, schedule: Q04DX002 (ip), vehicle: saline 102 % of control | dose: 50.0 mg/kg/injection, schedule: Q04DX002 (ip), vehicle: saline 98 % of control | dose: 100.0 mg/kg/injection, schedule: Q04DX002 (ip), vehicle: saline 106 % of control

Nc1ccccc1Nc1c([N+](=O)[O-])cc(C(F)(F)F)cc1[N+](=O)[O-]
inactive: dose: 60.0 mg/kg/injection, schedule: Q01DX005 (ip), vehicle: Klucel (hydroxypropylcellulose) (HPC) 103 % of control | dose: 120.0 mg/kg/injection, schedule: Q01DX005 (ip), vehicle: Klucel (hydroxypropylcellulose) (HPC) 105 % of control | dose: 240.0 mg/kg/injection, schedule: Q01DX005 (ip), vehicle: Klucel (hydroxypropylcellulose) (HPC) 90 % of control

COC(=O)c1cc(-c2ccccc2)[nH]c(=O)c1C#N
inactive: [4] 100 % of control | dose: 120.0 mg/kg/injection, schedule: Q01DX005 (ip), vehicle: saline 100 % of control

CC(=O)N/C(=C\c1ccccc1)C(=O)NC(C)C(=O)O (centres undefined)
inactive: [7] 89 % of control | [8] 92 % of control | [9] 86 % of control

O=S(=O)(Nc1ccc(Cl)cc1)c1ccc(F)cc1
inactive: [1] 101 % of control | [2] 100 % of control | [10] 99 % of control

CC(C)(C)[NH2+][B-](F)(F)F
inactive: dose: 6.25 mg/kg/injection, schedule: Q01DX005 (ip), vehicle: saline 94 % of control | [6] 103 % of control

O=C(O)CCS(=O)(=O)CCC(=O)O
inactive: dose: 100.0 mg/kg/injection, schedule: Q04DX003 (ip), vehicle: saline with Tween-80 100 % of control | dose: 200.0 mg/kg/injection, schedule: Q04DX003 (ip), vehicle: saline with Tween-80 104 % of control

CCCN(CCC)C(=O)Cn1cc([N+](=O)[O-])s/c1=N/C(=O)NCC
inactive: dose: 25.0 mg/kg/injection, schedule: Q01DX001 (ip), vehicle: saline with Tween-80 97 % of control | dose: 50.0 mg/kg/injection, schedule: Q01DX001 (ip), vehicle: saline with Tween-80 99 % of control | [5] 106 % of control

Nc1ccc2cc3c(nc2n1)[nH]c1ccccc13
inactive: dose: 1.56 mg/kg/injection, schedule: Q01DX009 (ip), vehicle: saline with Tween-80 97 % of control | dose: 3.12 mg/kg/injection, schedule: Q01DX009 (ip), vehicle: saline with Tween-80 103 % of control | dose: 6.25 mg/kg/injection, schedule: Q01DX009 (ip), vehicle: saline with Tween-80 100 % of control | dose: 12.5 mg/kg/injection, schedule: Q01DX009 (ip), vehicle: saline with Tween-80 102 % of control | [3] 118 % of control

O=c1c2cc3c(=O)n(CO)c(=O)c3cc2c(=O)n1CO
inactive: [1] 118 % of control | [2] 120 % of control | [10] 121 % of control

CC(C)[N+](=C1O[B-](c2ccccc2)(c2ccccc2)O[B-]1(c1ccccc1)[C+]1CCCCC1)C(C)C (centres undefined)
inactive: [7] 102 % of control | [8] 108 % of control | [9] 116 % of control

c1ccc2c(c1)C1c3cccc[n+]3C2C2C1CC1C3c4ccccc4C(C12)[n+]1ccccc13 (centres undefined)
inactive: dose: 1.56 mg/kg/injection, schedule: Q01DX005 (ip), vehicle: saline with Tween-80 102 % of control | dose: 3.13 mg/kg/injection, schedule: Q01DX005 (ip), vehicle: saline with Tween-80 102 % of control | dose: 6.25 mg/kg/injection, schedule: Q01DX005 (ip), vehicle: saline with Tween-80 104 % of control and 94 % of control

Nc1ccccc1SCc1csc(-c2ccc(Cl)cc2)n1
inactive: dose: 50.0 mg/kg/injection, schedule: Q01DX009 (ip), vehicle: saline 103 % of control | dose: 100.0 mg/kg/injection, schedule: Q01DX009 (ip), vehicle: saline 114 % of control | dose: 200.0 mg/kg/injection, schedule: Q01DX009 (ip), vehicle: saline 109 % of control
